The text below walks through data of patent publication US5837698A, “Steroid nitrite and nitrate ester derivatives useful as anti-inflammatory drugs” (G. D. Searle & Co., priority 1996, dated 1998).

The test system of test [1] is rat aortic ring smooth muscle. The test can be described thus: In vitro smooth muscle relaxant activity assay (rat aortic ring) in the presence of Cys and L-NAME. The test is classed as cell-based. The note with it: for EC50: rat aortic rings precontracted with phenylephrine (0.3 uM), in the presence of cysteine and L-NAME, read-out: Relaxation, EC50. The protocol: The rat aortic ring assay was utilized as a bioassay to measure the relaxant activity. The rings were precontracted with phenylephrine (0.3 uM) and subsequently compounds were added to the tissue bath in the presence of cysteine (Cys) and N^G -L-nitroarginine methyl ester (L-NAME): A.In vitro smooth muscle relaxant activity assay in the presence of Cys and L-NAME: […]

The subject of test [2] is prostaglandin E2 (PGE2) synthesis in Human fetal fibroblast cells. The test can be described thus: In vitro inhibition of prostaglandin E2 (PGE2) synthesis assay. The test is classed as cell-based. As to conditions: IL-1 for 16 hours, compound 10 uM given with IL-1, ELISA, Basal 0.6, IL-1 alone 9.4. As for the experimental part:
B. In vitro inhibiton of prostaglandin E2 (PGE2) synthesis assay: Human fetal fibroblast cells were treated with IL-1 for 16 hours and prostaglandin E2 was measured by an ELISA. Compounds were given at the time of addition of IL-1. This assay provides an in vitro assessment of the compound to block the induction of the proinflammatory agent prostaglandin E2 (PGE2): […]
Background: An ELISA detects its analyte on a solid surface through an enzyme-linked reagent.

SMILES strings stand for the structures.

Consider `CCC(=O)OCC(=O)[C@@]1(OC(=O)CC)[C@@H](C)C[C@H]2[C@@H]3CCC4=CC(=O)C=C[C@]4(C)[C@@]3(Cl)[C@@H](O)C[C@@]21C` [Beclomethasone-dipropionate, reference compound], for which, in test [1] (rat aortic ring, precontracted with phenylephrine, Cys and L-NAME), the “smooth muscle relaxant activity (in words)” value is “did not show any effect”. Besides, in test [1], the concentration for a half-maximal effect (EC50) (as a rule, the concentration that produces a half-maximal response) is 100 µM.
`C[C@@H]1C[C@H]2[C@@H]3CCC4=CC(=O)C=C[C@]4(C)[C@@]3(F)[C@@H](O)C[C@]2(C)[C@@]1(O)C(=O)CO` [Dexamethasone, reference compound] showed a PGE2 in test [2] of 0.6 ng.
For `CCC(=O)OCC(=O)[C@@]1(OC(=O)CC)[C@@H](C)C[C@H]2[C@@H]3CCC4=CC(=O)C=C[C@]4(C)[C@@]3(Cl)[C@@H](OC(=O)CCC(=O)O[C@H]3CO[C@H]4[C@@H]3OC[C@H]4O[N+](=O)[O-])C[C@@]21C` [Example 1], the EC50 in test [1] was above 10 µM. In test [2], the PGE2 is 0.5 ng.
Regarding `C[C@]12C=CC(=O)C=C1CC[C@@H]1[C@@H]2[C@@H](O)C[C@@]2(C)[C@H]1CC[C@]2(O)C(=O)COC(=O)CCC(=O)O[C@H]1CO[C@H]2[C@@H]1OC[C@H]2O[N+](=O)[O-]` [Example 21], the EC50 in test [1] is 3 µM. Further, the PGE2 in test [2] is recorded as 0.4 ng.
